From PubChem BioAssay (NCI)
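Grown in 96-well plates, cells were treated for 48 hours with each compound at five concentrations. Insufficient inhibition: endpoint recorded as highest concentration tested. GI50 = concentration required for 50% inhibition of growth. TGI marks complete inhibition of growth.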

Legend:
Experiment in all cases: inhibition of tumour cell growth, NCI panel, 48 h
[1] = tested on: EKVX NSCLC
[2] = tested on: HOP-92 NSCLC
[3] = tested on: IGROV1 ovarian
[4] = tested on: MALME-3M melanoma
[5] = tested on: MDA-MB-435
[6] = tested on: MOLT-4 leukemia
[7] = tested on: NCI/ADR-RES ovarian
[8] = tested on: OVCAR-4 ovarian
[9] = tested on: PC-3 prostate
[10] = tested on: TK-10 renal

## COc1cc(/C=C2\CCCC3=C2NC(N)=NC3c2cc(OC)c(OC)c(OC)c2)cc(OC)c1OC (stereo not given)
[1]
  GI50: 3.12 µM
  TGI: > 100 µM
[2]
  GI50: 1.58 µM
  TGI: 5.74 µM
[3]
  GI50: 3.35 µM
  TGI: > 100 µM
[4]
  GI50: 1.92 µM
  TGI: 5.47 µM
[5]
  GI50: 0.422 µM
  TGI: > 100 µM
[6]
  GI50: 1.69 µM
  TGI: 5.83 µM
[7]
  GI50: 0.29 µM
  TGI: > 100 µM
[8]
  GI50: 1.7 µM
  TGI: > 100 µM
[9]
  GI50: 1.93 µM
  TGI: > 100 µM
[10]
  GI50: 3.24 µM
  TGI: 7.23 µM
